Read-outs that look alike come from different tables or passages of the source.
Tests used:
[1] = test system: human diploid fibroblasts (HDFs); test: Cell viability, apoptosis and necrosis in HDFs by flow cytometry; conditions: for apoptosis (Annexin-V): 880 mM HP; for necrosis (cells incorporating propidium iodide) / Cell viability (7AAD): pure ORP water solution or 880 mM HP
[2] = test system: human diploid fibroblasts (HDFs); test: 8-OHdG DNA adducts in HDFs (ELISA); conditions: HP 500 μM
[3] = test system: primary HDF cultures; test: SA-β-galactosidase expression in HDFs after chronic exposure; type: cell-based, human; conditions: 20 population doublings (one month), ORP water solution 10% or HP 5 μM
Text: The results are depicted in FIG. 6.

[4] = test system: murine polychromatic erythrocytes (bone marrow); conditions: mice; for PCE/NCE ratio: intraperitoneal, cyclophosphamide 8 mg/mL, 12.5 ml/kg on day 2
Protocol: The mammalian in vivo micronucleus test is used for the identification of substances which cause damage to chromosomes or the mitotic apparatus of murine polychromatic erythrocytes. This damage results in the formation of “micronuclei,” intracellular structures containing lagging chromosome fragments or isolated whole chromosomes. […] The positive control mice received a single intraperitoneal injection of cyclophosphamide (8 mg/mL, 12.5 ml/kg) on day 2. All mice were observed immediately after injection for any adverse reactions. […] On day 3, all mice were weighed and terminated.
The femurs were excised from the terminated mice, the bone marrow was extracted, and duplicate smear preparations were performed for each mouse. The bone marrow slides for each animal were read at 40× magnification. The ratio of polychromatic erythrocytes (PCE) to normochromatic erythrocytes (NCE), an index of bone marrow toxicity, was determined for each mouse by counting a total of at least 200 erythrocytes. Then a minimum of 2000 scoreable PCE per mouse were evaluated for the incidence of micronucleated polychromatic erythrocytes. Statistical analysis of the data were done using the Mann and Whitney test (at 5% risk threshold) from a statistical software package (Statview 5.0, SAS Institute Inc., USA).

Structure (SMILES) | apoptosis (Annexin-V) ([1]; 5 min exposure) [%] | necrosis (cells incorporating propidium iodide) ([1]; 5 min exposure) [%] | Cell viability (7AAD) ([1]; 5 minute exposure) [%] | apoptosis (Annexin-V) ([1]; 30 min exposure) [%] | Cell viability (7AAD) ([1]; 30 min exposure) [%] | necrosis (cells incorporating propidium iodide) ([1]; 30 min exposure) [%] | 8-OHdG adducts relative to control-treated cells ([2]; 30 minutes treatment then 3 hour recovery in supplemented DMEM) | 8-OHdG adducts relative to control-treated cells ([2]; 30 minutes treatment, DNA extracted right after exposure) | cells expressing SA-β-Gal [3] [%] | PCE/NCE ratio ([4]; females) | number of polychromatic erythrocytes bearing micronuclei ([4]; males, intraperitoneal 12.5 ml/kg) | PCE/NCE ratio ([4]; males)
OO [HP, hydrogen peroxide] | 15 | 20 | 55 | 20 | 5 | 75 | about 5 times | about 25 fold | 86 |  |  | 
O=P1(N(CCCl)CCCl)NCCCO1 (stereo not drawn) [cyclophosphamide] |  |  |  |  |  |  |  |  |  | 0.73 | 11.0 | 0.77
